Experimental findings from patent publication US7723029B2, “Biochips including ion transport detecting structures and methods of use” (Aviva Biosciences Corporation, priority 2002, dated 2010) are described below.

In this test the test system is RBL-1 cell. The conditions noted are these: glass chip treated with base then H2O (FIG. 31) and conventional patch glass capillary (FIG. 30), addition of barium chloride.

Method: After baking, the glass chips were stored in de-ionized H2O for many hours (ranging from less than 1 hour to over 2 days). […] The whole cell recording on a RBL-1 cell on this chip for a ramping voltage protocol, in which the voltage applied across the cell membrane linearly varied with time from −120 mV to 60 mV at a rate of 120 mV/second, is shown in FIG. 29. […] With or without baking the chips, the glass chips were first treated with HNO3 (6 M) for 4 or 5 hours, then treated with NaOH (5M) for 30-45 minutes, and were then transferred into de-ionized H2O (pH=6-7) for storage/treatment. […] A ramping voltage protocol was used for the recording in FIG. 32, in which the voltage applied across the cell membrane linearly varied with time from −120 mV to 60 mV at a rate of 120 mV/second. […] A ramping voltage protocol was used for the recording in FIG. 33, in which the voltage applied across the cell membrane linearly varied with time from −120 mV to 60 mV at a rate of 120 mV/second. • (4) Laser polishing followed by Acid treatment and then by base treatment.

For the molecule `[Ba+2].[Cl-].[Cl-]` [barium chloride], the whole-cell current entry is “inhibition of the whole-cell current”.
